Our source for the EC50 values is patent US12565494B2, “Inhibitors of human respiratory syncytial virus and metapneumovirus” (priority 2022, dated 2026).

The subject of one test is RSV-A2-GFP virus. The test is described as follows: microbe, parasite or virus in culture. The format is cell-based, Human Respiratory Syncytial Virus. The method, boiled down: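 Assay-ready frozen Calu-1 cells (20,000 cells/mL) were infected with RSV-A2-GFP at MOI 1.2 in DMEM with 2% FBS and exposed to a 10-point 3-fold compound dilution for 96 h at 37 °C. GFP-positive cells were counted by imaging, with same-well CellTiter-Glo for cytotoxicity. IC50 and CC50 came from 4-parameter logistic fits.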

The next test deals with hMPV-GFP virus. The test is described as follows: microbe, parasite or virus in culture. Type of test: cell-based, Human Metapneumovirus. The gist of the method: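 VERO cells infected with GFP-expressing hMPV at MOI 1.25 and exposed to compound in 10-point 3-fold dilutions (typical final 40,300–2 nM) for 48 h at 37 °C. GFP-positive cells counted by imaging; same-well CellTiter-Glo for cytotoxicity. IC50 and CC50 from 4-parameter logistic fits.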

Molecules are shown by their SMILES. Where two headings read alike, the source gives them in different places.

The EC50 is the concentration giving half of the maximal effect.

`Cn1nc(-c2ccon2)cc1C(=O)N1C[C@@H]2[C@H](C1)[C@H]2Oc1cc(C(C)(C)N)cc(-c2ccc3c(c2)CC3(F)F)n1` [Example 36, ((1R,5S,6s)-6-((4-(2-aminopropan-2-yl)-6-(7,7-difluorobicyclo[4.2.0]octa-1(6),2,4-trien-3-yl)pyridin-2-yl)oxy)-3-azabicyclo[3.1.0]hexan-3-yl)(3-(isoxazol-3-yl)-1-methyl-1H-pyrazol-5-yl)methanone]: the 50% effective concentration (EC50) with RSV-A2-GFP virus (Table I Summary of Activities for RSV; Calu-1 cells, RSV-A2-GFP MOI=1.2, 96 hrs, GFP-expressing cells counted; read-out: RSV EC50) is < 10 nM; with hMPV-GFP virus (Table II Summary of Activities for hMPV; VERO cells, hMPV-GFP MOI=1.25, 48 hrs, GFP-expressing cells counted; read-out: RSV EC50), > 100 nM.

For the compound `Cn1nc(-c2cscn2)cc1C(=O)N1C[C@H]2[C@H](Oc3cc(C(C)(C)N)cc(N4CCC(C)(C)CC4)n3)[C@@]2(C)C1` (single isomer, unassigned; enantiomer 2) [Example 46B], the EC50 was < 10 nM with RSV-A2-GFP virus (read-out: RSV EC50; Table I Summary of Activities for RSV; Calu-1 cells, RSV-A2-GFP MOI=1.2, 96 hrs, GFP-expressing cells counted) and > 100 nM in the test with hMPV-GFP virus (read-out: RSV EC50; Table II Summary of Activities for hMPV; VERO cells, hMPV-GFP MOI=1.25, 48 hrs, GFP-expressing cells counted).
